Measurements taken from article PMC4577076, “Detoxification of Indole by an Indole-Induced Flavoprotein Oxygenase from Acinetobacter baumannii” (PLoS ONE, 2015).

Target: T1, IifC (Acinetobacter baumannii, UniProt A0ABX6CFV1)
T1 construct: gene styA; full length, 412 aa; pQE-80L (BamHI/PstI); expressed in E. coli CY15000 (tnaA mutant); purified by Q-Sepharose anion exchange
T1 sequence (A0ABX6CFV1 1-412): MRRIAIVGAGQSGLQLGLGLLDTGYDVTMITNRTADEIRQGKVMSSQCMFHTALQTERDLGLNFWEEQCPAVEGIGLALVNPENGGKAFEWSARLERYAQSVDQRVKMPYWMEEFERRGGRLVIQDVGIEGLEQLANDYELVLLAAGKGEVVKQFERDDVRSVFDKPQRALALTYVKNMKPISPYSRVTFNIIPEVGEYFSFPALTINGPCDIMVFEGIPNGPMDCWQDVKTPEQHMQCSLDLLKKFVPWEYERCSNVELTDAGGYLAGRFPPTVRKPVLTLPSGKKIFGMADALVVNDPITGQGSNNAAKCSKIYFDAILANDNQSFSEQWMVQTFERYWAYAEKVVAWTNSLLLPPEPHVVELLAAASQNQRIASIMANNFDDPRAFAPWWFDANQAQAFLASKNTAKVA
Experiment: FAD content of purified protein
Format: binding
Settings: as purified from E. coli; non-covalently bound

Structure (SMILES): Cc1cc2nc3c(=O)[nH]c(=O)nc-3n(C[C@H](O)[C@H](O)[C@H](O)COP(=O)(O)OP(=O)(O)OC[C@H]3O[C@@H](n4cnc5c(N)ncnc54)[C@H](O)[C@@H]3O)c2cc1C [flavin adenine dinucleotide]
- mol FAD per mol protein: 0.48 mol/mol
